Biological target: T1, Mycothiol S-conjugate amidase (Mycobacterium tuberculosis, UniProt P9WJN1)
T1 sequence (P9WJN1 whole entry): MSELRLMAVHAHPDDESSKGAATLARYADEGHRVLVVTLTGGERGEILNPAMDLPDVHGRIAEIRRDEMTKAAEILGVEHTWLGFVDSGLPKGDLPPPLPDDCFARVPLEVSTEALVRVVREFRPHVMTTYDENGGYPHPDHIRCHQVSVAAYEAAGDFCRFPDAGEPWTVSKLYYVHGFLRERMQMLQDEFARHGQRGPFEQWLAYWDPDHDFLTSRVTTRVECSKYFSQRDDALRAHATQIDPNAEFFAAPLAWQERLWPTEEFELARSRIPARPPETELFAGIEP
Assay: Inhibition of Mycothiol -S-conjugate amidase (MCA) from mycobacterium tuberculosis

SMILES | IC50
CC(=O)N[C@H](CSCc1c(C)c(=O)n2c(=O)c(C)c(C)n12)C(=O)NC1C(OC2C(O)C(O)C(O)C(O)C2O)OC(CO)C(O)C1O (stereo partly specified) [MYCOTHIOL BIMANE] | ~1 µM
COC1=C(Br)[C@@H](O)[C@]2(C=C1Br)CC(C(=O)NCCc1[nH]c(N)nc1-c1cc(O)c3ncc(O)c(O)c3c1O)=NO2 | 2 µM
Nc1ccc(SSCCNC(=O)/C(Cc2ccc(O)c(Cl)c2)=N\O)cc1 | 35 µM
O=C(NCCSSCCNC(=O)/C(Cc1ccc(O)c(Br)c1)=N/O)/C(Cc1ccc(O)c(Br)c1)=N/O [PSAMMAPLIN A] | 2.8 µM
COC1=C(Br)C[C@]2(C=C1Br)CC(C(=O)NCCc1c[nH]c(N)n1)=NO2 | 100 µM
NCCCOc1c(Br)cc(C/C(=N\O)C(=O)NCCc2c[nH]c(N)n2)cc1Br | 36 µM
COC1=C(Br)C[C@]2(OC=C1Br)ON=C(C(=O)NCCOc1c(Br)cc(CCN)cc1Br)[C@@H]2O | 20 µM
O=C(NCCSSc1ccc(F)cc1)/C(Cc1ccc(O)c(Cl)c1)=N\O | 37 µM
Nc1ccc(SSCCNC(=O)/C(Cc2cccc(Br)c2)=N\O)cc1 | 185 µM
Nc1ccc(SSCCNC(=O)/C(Cc2cc(F)cc(F)c2)=N\O)cc1 | 450 µM
Cc1cccc(C)c1SSCCNC(=O)/C(Cc1cccc(Br)c1)=N/O | 65 µM
O=C(NCCSSc1ccc(F)cc1)/C(Cc1cccc(Br)c1)=N\O | 90 µM
N=C(N)CCCCNC(=O)/C(Cc1cc(Br)c(OCCCN)c(Br)c1)=N/O | 2.8 µM
CC(=O)N[C@H](CS)C(=O)NC1C(OC2C(O)C(O)C(O)C(O)C2O)OC(CO)C(O)C1O (stereo partly specified) | ~1 µM
COC1=C(Br)C[C@]2(OC=C1Br)ON=C(C(=O)NCCOc1c(Br)cc(C(O)CN)cc1Br)[C@@H]2O (stereo partly specified) | 26 µM
O=C(NCCSSc1ccc(F)cc1)/C(Cc1cc(F)cc(F)c1)=N\O | 2720 µM

Source: ChEMBL document CHEMBL1135313, “Bromotyrosine-derived natural and synthetic products as inhibitors of mycothiol-S-conjugate amidase” (Bioorg Med Chem Lett, 2002)
